Experimental data from patent publication US20220394979A1 (priority 2021, published 2022).
Read-outs that look alike come from different tables or passages of the source.

How the values were obtained:
C. perfringes = settings: Ammonia at 0.1% w/w
[1] = test system: parasites and protozoan oocysts; settings: 20,000 mg/L ammonium phosphate, NH3 30 mg/L at pH 7.4, 300 mg/L at pH 8.4, cited from earlier work
[2] = recommended storage conditions; cited from earlier work
virus = settings: quat 0.5% (5 g/L), cited from earlier work
bacteria = settings: quat 0.5% (5 g/L), cited from earlier work

Question: What does the source list for N [Ammonia]?
Answer: level of C. perfringes after treatment (C. perfringes; raw biosolids at 1×10^7): less than 2×10^2; log reduction of spore forming bacteria and parasites (C. perfringes; raw biosolids): five log reductions

Question: With N.N.O=P(O)(O)O [Ammonium Phosphate/Nonionized Ammonia, Ammonium Phosphate Dibasic] as the molecule, how does the “Degree of Inactivation: log reduction of parasites and protozoan oocysts” value [1] read?
Answer: The value was 6 log reduction of parasites and.

Question: And the “Degree of Inactivation: log reduction of parasites and protozoan oocysts” value ([1]; listed as Ammonium Phosphate)?
Answer: The value was 6 log reduction of.

Question: What about the Storage stability [2] of the same molecule?
Answer: The Storage stability was “Stable under recommended storage”.

Question: For “C12-C14-alkyl (ethylbenzyl) dimethyl ammonium chloride [Quaternary Amines]”, which “Degree of Inactivation: log reduction of virus” value (virus) is on record?
Answer: The value was 6 log reduction, of virus.

Question: What about the “Degree of Inactivation: log reduction of virus” value (virus; listed as Quats) of the same molecule?
Answer: Its value is 6 log reduction. of.

Question: And the “Degree of Inactivation: log reduction of bacteria” value (bacteria)?
Answer: Its value is 9 log reduction of bacteria.

Question: And the “Degree of Inactivation: log reduction of bacteria” value (bacteria; listed as Quats)?
Answer: Its value is 9 log reduction of.
